This passage reports IC50 results from patent publication US10457655B2, “Compounds and compositions for inhibition of FASN” (FORMA Therapeutics, Inc., priority 2013, dated 2019).

The target of one test is FASN enzyme (Homo sapiens, UniProt P49327). The experiment in a line: Enzymatic Assay for FASN Inhibitors. It counts as biochemical. A digest of the protocol: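 40 nM FASN preincubated with compound 60 min at 25° C in HEPES pH 7.3 buffer with 0.04% Triton X-100. Then 20 μM acetyl-CoA, 60 μM malonyl-CoA and 100 μM NADPH added for 90 min, quenched with CPM thiol probe; fluorescence 360/530 nm, IC50 by four-parameter fit.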
FASN enzyme, sequence (P49327 whole entry): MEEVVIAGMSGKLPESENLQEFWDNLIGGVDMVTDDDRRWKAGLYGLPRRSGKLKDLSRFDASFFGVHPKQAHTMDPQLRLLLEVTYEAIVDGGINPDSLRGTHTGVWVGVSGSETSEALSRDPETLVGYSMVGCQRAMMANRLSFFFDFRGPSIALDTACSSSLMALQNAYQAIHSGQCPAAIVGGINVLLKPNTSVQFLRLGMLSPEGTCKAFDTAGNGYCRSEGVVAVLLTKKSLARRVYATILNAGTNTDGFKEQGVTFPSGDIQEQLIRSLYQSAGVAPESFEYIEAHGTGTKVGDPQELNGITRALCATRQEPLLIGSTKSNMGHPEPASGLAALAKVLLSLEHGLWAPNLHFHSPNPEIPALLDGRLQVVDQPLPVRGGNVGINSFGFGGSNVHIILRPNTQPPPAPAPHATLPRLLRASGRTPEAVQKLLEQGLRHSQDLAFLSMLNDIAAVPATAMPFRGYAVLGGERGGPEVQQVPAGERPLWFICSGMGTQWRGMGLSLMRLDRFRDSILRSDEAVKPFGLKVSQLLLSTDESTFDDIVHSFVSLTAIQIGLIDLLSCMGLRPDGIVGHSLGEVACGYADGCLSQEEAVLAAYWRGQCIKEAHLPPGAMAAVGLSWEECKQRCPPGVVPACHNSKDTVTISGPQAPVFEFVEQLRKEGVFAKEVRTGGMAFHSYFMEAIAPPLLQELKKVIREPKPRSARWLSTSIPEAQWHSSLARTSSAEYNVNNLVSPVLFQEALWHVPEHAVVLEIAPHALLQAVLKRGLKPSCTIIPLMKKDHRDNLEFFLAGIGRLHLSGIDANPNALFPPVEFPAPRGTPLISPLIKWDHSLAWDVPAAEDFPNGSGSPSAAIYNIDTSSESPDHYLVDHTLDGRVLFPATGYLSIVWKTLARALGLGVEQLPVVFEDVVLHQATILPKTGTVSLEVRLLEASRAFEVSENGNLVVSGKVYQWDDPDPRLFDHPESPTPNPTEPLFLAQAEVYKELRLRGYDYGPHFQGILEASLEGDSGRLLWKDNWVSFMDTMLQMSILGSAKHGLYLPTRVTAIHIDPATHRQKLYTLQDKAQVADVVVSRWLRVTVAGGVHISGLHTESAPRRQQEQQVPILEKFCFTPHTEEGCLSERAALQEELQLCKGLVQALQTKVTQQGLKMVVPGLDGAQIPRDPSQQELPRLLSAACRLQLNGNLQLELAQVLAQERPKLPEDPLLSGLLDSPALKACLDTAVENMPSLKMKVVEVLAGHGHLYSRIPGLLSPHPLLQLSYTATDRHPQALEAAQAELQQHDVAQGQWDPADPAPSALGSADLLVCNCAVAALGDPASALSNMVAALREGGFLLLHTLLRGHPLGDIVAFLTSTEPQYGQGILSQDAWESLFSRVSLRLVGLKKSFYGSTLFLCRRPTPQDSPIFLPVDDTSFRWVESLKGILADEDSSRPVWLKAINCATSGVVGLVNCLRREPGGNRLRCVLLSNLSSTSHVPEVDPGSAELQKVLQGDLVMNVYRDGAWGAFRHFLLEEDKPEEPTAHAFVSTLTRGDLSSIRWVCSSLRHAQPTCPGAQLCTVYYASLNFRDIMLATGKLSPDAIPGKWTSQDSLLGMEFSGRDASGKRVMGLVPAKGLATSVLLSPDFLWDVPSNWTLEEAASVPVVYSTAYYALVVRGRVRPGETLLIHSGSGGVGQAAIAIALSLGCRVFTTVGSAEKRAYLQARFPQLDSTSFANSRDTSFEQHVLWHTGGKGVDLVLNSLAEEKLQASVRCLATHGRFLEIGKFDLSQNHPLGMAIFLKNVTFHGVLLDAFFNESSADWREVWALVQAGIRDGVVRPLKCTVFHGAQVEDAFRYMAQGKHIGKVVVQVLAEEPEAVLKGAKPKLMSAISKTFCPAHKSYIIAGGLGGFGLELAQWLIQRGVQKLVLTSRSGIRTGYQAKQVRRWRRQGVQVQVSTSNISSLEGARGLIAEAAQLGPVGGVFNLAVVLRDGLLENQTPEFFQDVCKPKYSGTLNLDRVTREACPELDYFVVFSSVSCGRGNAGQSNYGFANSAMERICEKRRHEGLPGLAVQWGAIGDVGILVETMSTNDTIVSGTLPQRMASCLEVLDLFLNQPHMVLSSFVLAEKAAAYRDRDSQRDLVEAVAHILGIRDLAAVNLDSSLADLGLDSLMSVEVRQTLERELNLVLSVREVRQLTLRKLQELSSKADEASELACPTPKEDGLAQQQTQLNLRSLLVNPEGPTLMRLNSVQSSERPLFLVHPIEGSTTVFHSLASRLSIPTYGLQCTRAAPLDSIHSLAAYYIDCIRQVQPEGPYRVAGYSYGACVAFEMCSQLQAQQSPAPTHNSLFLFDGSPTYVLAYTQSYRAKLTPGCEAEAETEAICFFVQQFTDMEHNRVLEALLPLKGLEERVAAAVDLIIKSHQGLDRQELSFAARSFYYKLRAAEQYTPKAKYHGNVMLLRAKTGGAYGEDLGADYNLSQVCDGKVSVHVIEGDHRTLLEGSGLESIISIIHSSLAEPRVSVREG

In another test the test system is PC3 cells. In words: Cell Proliferation Assays for FASN Inhibitors (PC3 cells, MTT). Particulars: Homo sapiens, PC-3, 96 h. The format is cell-based. A digest of the protocol: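 PC3 cells seeded overnight, then exposed to compound for 4 days at 37 °C in F12K with 10% lipid-reduced serum, 0.1% final DMSO. Viability read by MTT; IC50 from four-parameter logistic fit of dose–response.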

[1] abbreviates: read-out: IC50 (uM) < 0.5, 10% lipid reduced serum, 4 days, Table 3-1.

Like-named read-outs stand apart in the source and are kept apart here.

As for `O=C(c1ccc(-c2nc3cc(F)ccc3o2)cc1)N1CCN(C(=O)C2(O)CC2)CC1` [1-[(4-{[4-(5-fluoro-1,3-benzoxazol-2-yl)phenyl]carbonyl}piperazin-1-yl)carbonyl]cyclopropan-1-ol], the IC50 was less than 500 nM against FASN enzyme and less than 0.5 µM in the test on PC3 cells (setting [1]).

Turning to `O=C(c1ccc(-c2cnc3ccccc3c2)cc1Cl)N1CCN(C(=O)C2(O)CC2)CC1`, the IC50 at FASN enzyme was less than 500 nM; in the test with PC3 cells (setting [1]), less than 0.5 µM.

Consider `CC(C)n1ccc2cc(-c3ccc(C(=O)N4CCN(C(=O)C5(O)CC5)CC4)cc3Cl)ccc21` [1-{[4-({3-chloro-4-[1-(propan-2-yl)-1H-indol-5-yl]phenyl}carbonyl)piperazin-1-yl]carbonyl}cyclopropan-1-ol], for which the IC50 against FASN enzyme was less than 500 nM; in the test with PC3 cells (read-out: IC50 (uM) ≥ 0.5, 10% lipid reduced serum, 4 days, Table 3-2), no less than 0.5 µM.

As for `O=C(c1ccc(-c2cc3ccccn3n2)cc1)N1CCN(C(=O)C2(O)CC2)CC1`, the IC50 on FASN enzyme is less than 500 nM; in the test with PC3 cells (setting [1]), less than 0.5 µM.

On to `O=C(c1ccc(-c2ccc3scnc3c2)cc1)N1CCN(C(=O)C2(O)CC2)CC1` [1-[(4-{[4-(1,3-benzothiazol-5-yl)phenyl]carbonyl}piperazin-1-yl)carbonyl]cyclopropan-1-ol], for which the IC50 on FASN enzyme was less than 500 nM; in the test with PC3 cells (setting [1]) it was less than 0.5 µM.

Take `Cc1nn(C)c2ccc(-c3ccc(C(=O)N4CCN(C(=O)C5(O)CC5)CC4)cc3)cc12` [1-[(4-{[4-(1,3-dimethyl-1H-indazol-5-yl)phenyl]carbonyl}piperazin-1-yl)carbonyl]cyclopropan-1-ol]: the IC50 was less than 500 nM against FASN enzyme and less than 0.5 µM in the test with PC3 cells (setting [1]).

With `COc1ccc2cc(-c3ccc(C(=O)N4CCN(C(=O)C5(O)CC5)CC4)cc3)ccc2c1` [1-[(4-{[4-(6-methoxynaphthalen-2-yl)phenyl]carbonyl}piperazin-1-yl)carbonyl]cyclopropan-1-ol], the results for the IC50 against FASN enzyme and in the test on PC3 cells (setting [1]) were less than 500 nM and less than 0.5 µM, respectively.
